Data taken from US7015211B2 (Yale University, priority 2003, dated 2006).
“Also recorded” adds a separate entry of the source.

Key:
[1] = biological target: T1, ligand binding domain (LBD) of human ERα (M250-V595) (Homo sapiens, UniProt P03372); assay: Competitive binding to the LBD of human ERα in E. coli lysates
T1 construct: human ERα (M250-V595); made in house; host or cells: Escherichia coli (lysate used)
T1 sequence (P03372 250-595): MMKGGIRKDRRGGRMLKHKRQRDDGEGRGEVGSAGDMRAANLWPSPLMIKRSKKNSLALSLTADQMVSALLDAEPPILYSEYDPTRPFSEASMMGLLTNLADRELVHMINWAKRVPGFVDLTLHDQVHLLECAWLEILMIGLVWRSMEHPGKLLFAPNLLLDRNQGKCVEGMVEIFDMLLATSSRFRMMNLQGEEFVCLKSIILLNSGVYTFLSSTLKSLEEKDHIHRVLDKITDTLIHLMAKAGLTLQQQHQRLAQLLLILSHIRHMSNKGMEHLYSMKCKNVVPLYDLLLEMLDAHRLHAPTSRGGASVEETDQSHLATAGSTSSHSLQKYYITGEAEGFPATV

[2] = biological target: T2, ligand binding domain (LBD) of human ERβ (M214-Q530) (Homo sapiens, UniProt Q92731); assay: Competitive binding to the LBD of human ERβ in E. coli lysates; details: RBA compared to E2 (=100), [3H]E2, ± SD
T2 construct: human ERβ (M214-Q530); made in house; host or cells: Escherichia coli (lysate used)
T2 sequence (Q92731 214-530): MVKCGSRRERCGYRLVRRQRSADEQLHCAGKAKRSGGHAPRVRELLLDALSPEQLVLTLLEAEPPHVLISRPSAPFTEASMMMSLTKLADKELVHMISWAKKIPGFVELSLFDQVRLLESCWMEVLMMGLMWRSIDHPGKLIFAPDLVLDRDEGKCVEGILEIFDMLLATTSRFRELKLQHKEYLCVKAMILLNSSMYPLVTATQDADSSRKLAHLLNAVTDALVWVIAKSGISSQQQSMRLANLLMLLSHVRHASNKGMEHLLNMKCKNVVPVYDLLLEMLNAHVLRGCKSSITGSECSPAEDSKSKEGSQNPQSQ

[3] = tested on: human endometrial adenocarcinoma cells (Ishikawa); assay: Estrogenic potency in Ishikawa cells, induction of alkaline phosphatase (AlkP); format: cell-based
Experimental: Estrogenic Potency in Ishikawa Cells. The estrogenic potency of the E2-analogs was determined in an estrogen bioassay, the induction of alkaline phosphatase (AlkP) in human endometrial adenocarcinoma cells (Ishikawa) grown in 96-well microtiter plates as we have previously described.^38 In short, the cells are grown in phenol red free medium with estrogen depleted (charcoal stripped) bovine serum in the presence or absence of varying amounts of the steroids, across a dose range of at least 6 orders of magnitude. […] After 3 days, the cells are washed, frozen and thawed, and then incubated with 5 mM p-nitrophenyl phosphate, a chromogenic substrate for the AlkP enzyme, at pH 9.8. To ensure linear enzymatic analysis, the plates are monitored kinetically for the production of p-nitrophenol at 405 nm. […] Each compound was analyzed in at least 3 separate experiments performed in duplicate.

[4] = tested on: esterase, rat hepatic microsomes; assay: Esterase hydrolysis in rat hepatic microsomes; format: in vitro ADME
Experimental: Esterase. Esterase activity was measured in rat hepatic microsomes essentially using the conditions described^41 with some minor modifications. Briefly, rat hepatic microsomes were incubated with 50 μM E2-alkyl ester. Since the rates of reaction are widely different for the various esters, the incubation times and enzyme concentration were varied accordingly to obtain linear kinetics. In every experiment, E16-1,2 was run concurrently to normalize the rate of hydrolysis of each compound. At several appropriate time points during the incubation (37° C.), 100 μL aliquots were quenched with a solution of 2 μg of the internal standard, 6-ketoestradiol in 33 μL of CH3CN, 33 μL of THF and 5 μL of glacial HOAc. The mixture was centrifuged and analyzed for the esterase-hydrolysis product (the corresponding E2-carboxylic acid) by reversed phase HPLC: E16-1,0; E15-1,0; E15-2,0; and E15-3,0 by HPLC with system H-29. Peaks for the hydrolysis product (E16-1,0 tR=10.7 min; E15-1,0 tR=6.9 min; E15-2,0 tR=9.9 min; E15-3,0 tR=14 min;) and the internal standard (tR=11.8 min for system H-29 and tR=8.8 min for system H-30 were quantified at 280 nm on the HPLC UV detector. The UV absorbance was converted to nmoles of product by comparison to standard curves and corrected for recovery of the internal standard, 6-ketoestradiol. The velocity of the reaction for each ester, in nmol product/min/mg protein, was then normalized to the ester, E16-1,2 and is shown in Table 1 as relative hydrolytic activity (RHA) The enzymatic velocity for the hydrolysis of E16-1,2 was 2.34±0.8 (S.D.) nmol product/min/mg protein over the various experiments. All compounds were tested in triplicate in at least 2 separate experiments

[5] = tested on: uterus of immature rats; assay: In vivo estrogen bioassay: uterine weight (uterotrophic assay, systemic); design: species or system rat
Experimental: In Vivo Estrogen Bioassays: Uterine Weight. […] Control animals received sesame oil. On the fourth day, the animals were killed, the uteri were removed, dissected, blotted and weighed. Except where noted, each compound was assayed in 2 separate experiments with n=5.

[6] = tested on: vagina of ovariectomized mice; assay: In vivo estrogen bioassay: vaginal reductases (local); design: species or system mouse
Experimental: In Vivo Estrogen Bioassays: Vaginal reductases. […] The formazan product in the organic extract is quantified at 500 nm. Except where noted, each compound was assayed on at least 2 separate occasions with at least 5–6 replicates each time.

[7] = biological target: T3, ER (ERα) in uterine cytosol (Rattus norvegicus, UniProt P06211); assay: Competitive binding to the estrogen receptor in rat uterine cytosol
T3 sequence (P06211 1-600): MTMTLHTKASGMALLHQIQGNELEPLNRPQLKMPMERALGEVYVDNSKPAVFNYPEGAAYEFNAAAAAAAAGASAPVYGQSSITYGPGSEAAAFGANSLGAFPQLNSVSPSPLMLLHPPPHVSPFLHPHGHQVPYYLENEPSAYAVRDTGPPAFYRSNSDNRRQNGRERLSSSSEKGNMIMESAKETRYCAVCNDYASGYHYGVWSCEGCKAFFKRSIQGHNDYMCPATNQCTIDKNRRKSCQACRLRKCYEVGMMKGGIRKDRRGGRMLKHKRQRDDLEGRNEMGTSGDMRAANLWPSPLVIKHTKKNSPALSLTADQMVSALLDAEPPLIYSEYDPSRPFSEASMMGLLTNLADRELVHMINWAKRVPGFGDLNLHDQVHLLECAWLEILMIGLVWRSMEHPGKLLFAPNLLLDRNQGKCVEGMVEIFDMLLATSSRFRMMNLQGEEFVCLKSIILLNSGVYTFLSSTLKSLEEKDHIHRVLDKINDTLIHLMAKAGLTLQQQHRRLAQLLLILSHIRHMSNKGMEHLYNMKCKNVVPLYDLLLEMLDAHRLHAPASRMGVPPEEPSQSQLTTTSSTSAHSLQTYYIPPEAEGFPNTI

Compound: CCOC(=O)[C@H]1C[C@H](O)[C@@]2(C)CC[C@@H]3c4ccc(O)cc4CC[C@H]3[C@H]12 [E15-1,2, Ethyl(3,17β-dihydroxyestra-1,3,5(10)-trien-15α-yl)formate]
- selectivity / preference for ERα ([1]; ERα versus ERβ LBD): about 3 fold
- ERα RBA ([1]; RBA compared to E2 (=100), LBD of human ERα in E. coli lysates, [3H]E2, ± SD): 22 ± 5
- ERα/ERβ (ratio of RBA) ([1]; ratio RBA of ERα/ERβ, human LBDs, ± SD): 3 ± 0.6
- ERβ RBA [2]: 7 ± 2
- Ishikawa cell AlkP (RSA) ([3]; relative stimulatory activity = EC50 of E2 / EC50 of analog x 100, E2 = 100, 3 days, ± SD): 18 ± 10
- RSA ([3]; relative to E2): 18%
- Esterase (RHA) [4]: 2.3 ± 0.1
- uterotrophic response (in words) ([5]; 100 μg dose): neither of these 15α-substituted estrogens produced a statistically significant uterotrophic response; also recorded: neither of these 15α-alkyl esters produce a statistically significant estrogenic response in the uterus; also recorded: inactive in the uterotrophic assay
- uterotrophic stimulation at 300 μg dose, equivalent ng of E2 ([5]; 300 μg dose, statistically significant (P<0.05)): 5 ng of E2
- Uterotrophic R.A × 10^3 ([5]; activity relative to E2, × 10^3, 100 μg dose, n.s. = not significantly different from the control): n.s.
- Vaginal R.A × 10^3 ([6]; activity relative to E2, × 10^3, 50 ng dose): 0.42
- activity in the vaginal assay (in words) ([6]; mouse, in vivo): very active in the vaginal assay
- Estrogen Receptor (RBA) ([7]; relative binding affinity, E2 = 100, rat uterine cytosol, 1 nM [3H]E2, ± SD): 25 ± 12
- RBA ([7]; relative to E2): 25%
